Laboratory results published in ChEMBL document CHEMBL1201862, “PubChem BioAssay data set” (2004).
Activity calls are given as the source filed them.

How the values were obtained:
[1] = target: T1, High affinity choline transporter 1 (Homo sapiens, UniProt Q9GZV3); assay: CHT inhibitors, dose response, cell-based, 5-point CRC, membrane potential dye (AID 504840); format: functional
T1 sequence (Q9GZV3 whole entry): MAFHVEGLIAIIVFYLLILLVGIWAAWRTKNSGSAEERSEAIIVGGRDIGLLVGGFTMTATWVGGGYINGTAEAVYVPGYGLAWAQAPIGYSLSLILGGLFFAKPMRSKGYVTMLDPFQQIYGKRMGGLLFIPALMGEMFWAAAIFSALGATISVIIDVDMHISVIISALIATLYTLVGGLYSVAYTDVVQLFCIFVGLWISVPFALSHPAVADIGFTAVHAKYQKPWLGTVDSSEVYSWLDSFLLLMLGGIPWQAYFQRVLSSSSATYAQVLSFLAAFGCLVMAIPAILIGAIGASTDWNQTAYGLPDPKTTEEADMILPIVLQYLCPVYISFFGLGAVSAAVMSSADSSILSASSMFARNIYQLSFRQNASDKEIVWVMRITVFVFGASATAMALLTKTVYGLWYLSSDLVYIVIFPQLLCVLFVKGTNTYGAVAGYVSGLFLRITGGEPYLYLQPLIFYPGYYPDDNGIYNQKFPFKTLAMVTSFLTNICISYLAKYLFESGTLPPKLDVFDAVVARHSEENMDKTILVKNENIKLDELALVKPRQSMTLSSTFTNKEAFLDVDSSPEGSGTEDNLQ

BJ [2] = assay: cells; format: functional, cell-based; conditions: Homo sapiens
[3] = cytotoxicity toward DRD oncogenic fibroblasts, dose response, cell-based, non-viral oncogenic, luminescence (AID 1934); format: functional; conditions: Homo sapiens
[4] = growth suppression of beta-catenin-knockout colon cells, dose response, cell-based, HCT116, human colon tumor (AID 1045); format: functional;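 further: HCT116 colon tumor cells with beta catenin knocked out; cells exposed to compound for 60 hours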
BJ [5] = assay: cytotoxicity toward BJ-TERT fibroblasts, dose response, cell-based, RAS-independent, luminescence (AID 1933); format: functional; conditions: Homo sapiens
INS1 = assay: beta cell apoptosis inhibitors, cytokine rescue, dose response, luminescence, retest (AID 449756); format: functional, cell-based; conditions: Rattus norvegicus;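 further: cell death triggered by IL-1 beta plus TNF-alpha plus IFN-gamma mixture; protective hits raise ATP signal compared with cytokine alone wells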
[6] = growth suppression of PTEN-null colon cells, dose response, cell-based, HCT116 PTEN knockout (AID 1047); format: functional;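 further: HCT116 colon tumor cells with PTEN knocked out; cells exposed to compound for 60 hours before readout; potency for loss of cell viability measured by luminescence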
Protein RecA = target: T2, Protein RecA (Mycobacterium tuberculosis, UniProt P9WHJ3); assay: Fluorescence Cell-Free Homogeneous Dose Retest to Identify Inhibitors of RecA-Intein Splicing Activity. [Related pubchem assays (depositor defined):AID2097, AID2223, AID489010, AID492950]; format: functional
T2 sequence (P9WHJ3 whole entry): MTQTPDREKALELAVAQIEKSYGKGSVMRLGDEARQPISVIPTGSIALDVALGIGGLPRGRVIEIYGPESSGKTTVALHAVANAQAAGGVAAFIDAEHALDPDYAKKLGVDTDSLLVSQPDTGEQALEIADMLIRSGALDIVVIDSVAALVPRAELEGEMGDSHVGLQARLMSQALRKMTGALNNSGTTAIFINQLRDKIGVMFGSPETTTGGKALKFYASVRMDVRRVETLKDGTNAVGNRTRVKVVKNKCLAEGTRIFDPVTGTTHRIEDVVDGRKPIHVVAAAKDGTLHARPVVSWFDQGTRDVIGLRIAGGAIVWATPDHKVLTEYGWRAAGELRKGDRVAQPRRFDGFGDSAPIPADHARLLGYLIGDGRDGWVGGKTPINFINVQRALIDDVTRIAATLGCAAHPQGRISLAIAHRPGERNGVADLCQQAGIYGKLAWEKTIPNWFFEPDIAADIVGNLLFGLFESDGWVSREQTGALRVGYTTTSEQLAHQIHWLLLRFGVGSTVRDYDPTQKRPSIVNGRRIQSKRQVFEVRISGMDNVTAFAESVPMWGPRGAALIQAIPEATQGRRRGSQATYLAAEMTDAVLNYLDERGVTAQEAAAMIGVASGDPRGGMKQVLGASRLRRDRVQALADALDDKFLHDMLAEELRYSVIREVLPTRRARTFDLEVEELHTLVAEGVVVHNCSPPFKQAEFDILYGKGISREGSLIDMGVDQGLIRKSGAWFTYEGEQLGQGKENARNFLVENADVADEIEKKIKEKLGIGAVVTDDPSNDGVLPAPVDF

[7] = target: T3, Replicative DNA helicase DnaB (Mycobacterium tuberculosis, UniProt P9WMR3); assay: DnaB intein splicing inhibitors, dose response, biochemical, cell-free fluorescence (AID 449749); format: functional
T3 sequence (P9WMR3 whole entry): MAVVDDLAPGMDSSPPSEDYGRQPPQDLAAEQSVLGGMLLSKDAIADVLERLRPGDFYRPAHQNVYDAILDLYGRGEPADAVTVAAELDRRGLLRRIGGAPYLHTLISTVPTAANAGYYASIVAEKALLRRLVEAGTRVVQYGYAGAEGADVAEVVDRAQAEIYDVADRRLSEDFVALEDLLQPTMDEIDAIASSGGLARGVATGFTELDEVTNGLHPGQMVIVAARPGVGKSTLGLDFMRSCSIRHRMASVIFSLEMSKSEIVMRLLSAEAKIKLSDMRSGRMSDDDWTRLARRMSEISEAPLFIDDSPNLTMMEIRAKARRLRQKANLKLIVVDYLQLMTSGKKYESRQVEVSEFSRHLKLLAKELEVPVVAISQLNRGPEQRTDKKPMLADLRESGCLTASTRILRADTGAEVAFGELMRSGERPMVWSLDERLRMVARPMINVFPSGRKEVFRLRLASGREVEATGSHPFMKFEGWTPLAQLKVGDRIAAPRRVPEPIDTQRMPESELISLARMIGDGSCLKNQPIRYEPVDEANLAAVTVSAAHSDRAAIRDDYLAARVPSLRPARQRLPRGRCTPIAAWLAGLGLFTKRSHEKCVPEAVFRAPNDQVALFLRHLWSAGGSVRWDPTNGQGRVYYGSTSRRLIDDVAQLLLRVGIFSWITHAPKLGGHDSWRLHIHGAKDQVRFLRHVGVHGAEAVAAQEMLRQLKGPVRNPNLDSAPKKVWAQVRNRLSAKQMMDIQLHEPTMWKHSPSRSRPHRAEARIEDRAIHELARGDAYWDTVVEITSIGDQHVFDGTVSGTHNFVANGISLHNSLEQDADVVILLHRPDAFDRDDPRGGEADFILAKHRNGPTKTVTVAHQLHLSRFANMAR

O=[N+]([O-])c1ccc(O)c(C2=NNC(c3ccccc3F)C2)c1 (centres undefined)
active: IC50 [1] 15.1 µM

Cc1oc2c(c1C(=O)N1CCC(C)CC1)C(=O)c1ccccc1C2=O
active: EC50 (BJ [2]) 13.3 µM | EC50 [3] 16.5 µM | EC50 [4] 1.86 µM | EC50 (BJ [5]) 17.6 µM | AC50 (INS1) 2.01 µM | EC50 [6] 1.92 µM | EC50 (Protein RecA) 1.09 µM | AC50 [7] 73.9 µM
